Source: US20250064990A1, “METHODS OF SCREENING FOR VMAT2 INHIBITORS” (Neurocrine Biosciences, Inc., priority 2021, published 2025)

Experiment: NBI-750142 concentration in cynomolgus monkey plasma by LC-MS/MS
Format: in vivo, cynomolgus monkeys (Macaca fascicularis)
Conditions: for concentration at 30 min / concentration at 60 min / concentration at 90 min / concentration at 120 min / concentration at 150 min / concentration at 180 min / concentration at 1 min: cynomolgus monkey, intravenous
Protocol: During each scan, whole blood PK samples were collected (in K2 EDTA tubes) at pre-dose (−5 min), and post-dose at 1 (end of bolus), 30, 60 (just prior to [^18F]AV-133 radiopharmaceutical administration), 90, 120, 150, 180 (end of scan) minutes after test article administration. PK samples were approximately 1 mL each (8 mL total, including pre-dose sample). PK sample collection times were relative to start of NBI-750142 bolus administration.
NBI-750142 concentration in cynomolgus monkey plasma samples was analyzed using a qualified LC-MS/MS bioanalytical method. […] Plasma samples were processed using protein precipitation extraction with 0.1% formic acid in acetonitrile and the addition of stable deuterium isotope labeled internal standard NBI-750142-D6. Processed samples were chromatographically separated on a C18 column and coupled to a Sciex API 4000 triple quadrupole mass spectrometer.
The method used in this study was qualified for a range of 0.250 to 250 ng/mL based on the analysis of 100 μL of plasma by LC-MS-MS. Quantitation was performed using a weighted 1/×2 linear least squares regression analysis generated from calibration standards. The protein precipitation extraction procedure began with the addition of internal standard solution (20.0 μL of approximately 100 ng/mL deuterated NBI-750142-D6). After adding 400 μL of acetonitrile/formic acid (1000:1.00), the tubes were sealed, vortexed and centrifuged. Subsequently, 100 μL of the supernatant was transferred to a new plate containing 400 μL of water/formic acid (1000:1.00). […] A triple quadrupole mass spectrometer (Sciex API 4000) equipped with TurboIonSpray source was used in the positive ion mode. Quantitation was based on multiple reaction monitoring (MRM) of m/z transitions of NBI-750142 and NBI-750142-D6.

[1] = 0.026 mg/kg, GC786, 0.026 mg/kg i.v.
[2] = 0.084 mg/kg, EC865, 0.084 mg/kg i.v.
[3] = 0.26 mg/kg, GC786, 0.26 mg/kg i.v.
[4] = 0.26 mg/kg, LC206, 0.26 mg/kg i.v.
[5] = 0.52 mg/kg, EC865, 0.52 mg/kg i.v.
[6] = 0.78 mg/kg, GC786, 0.78 mg/kg i.v.

Question: With `COc1cc2c(cc1OC)[C@H]1CN(C)[C@H](CC(C)(C)C)CN1CC2` [NBI-750142] as the compound, how does the “Mean ng/mL NBI-750142 Concentration during PET Scan (60-180 min)” value (EC865, 0.084 mg/kg i.v.) read?
Answer: 6.4 ng/mL

Question: And the “Mean ng/mL NBI-750142 Concentration during PET Scan (60-180 min)” value (EC865, 0.52 mg/kg i.v.)?
Answer: 37.6 ng/mL

Question: What about the “Mean ng/mL NBI-750142 Concentration during PET Scan (60-180 min)” value (GC786, 0.026 mg/kg i.v.) of the same compound?
Answer: 2.9 ng/mL

Question: What about the “ng/mL NBI-750142 at 1 min” value (GC786, 0.026 mg/kg i.v., BLQ = <0.250 ng/mL) of the same compound?
Answer: BLQ

Question: What about the “Mean ng/mL NBI-750142 Concentration during PET Scan (60-180 min)” value (GC786, 0.26 mg/kg i.v.) of the same compound?
Answer: 12.3 ng/mL

Question: What about the “Mean ng/mL NBI-750142 Concentration during PET Scan (60-180 min)” value (GC786, 0.78 mg/kg i.v.) of the same compound?
Answer: 74.5 ng/mL

Question: What about the “Mean ng/mL NBI-750142 Concentration during PET Scan (60-180 min)” value (LC206, 0.26 mg/kg i.v.) of the same compound?
Answer: 35.7 ng/mL

Question: What about the concentration at 30 min [1] of the same compound?
Answer: 2.31 ng/mL

Question: And the concentration at 60 min [1]?
Answer: 2.24 ng/mL

Question: What about the concentration at 90 min [1] of the same compound?
Answer: 2.56 ng/mL

Question: What about the concentration at 120 min [1] of the same compound?
Answer: 2.69 ng/mL

Question: And the concentration at 150 min [1]?
Answer: 3.69 ng/mL

Question: What about the concentration at 180 min [1] of the same compound?
Answer: 3.1 ng/mL

Question: What about the concentration at 1 min [2] of the same compound?
Answer: 108 ng/mL

Question: And the concentration at 30 min [2]?
Answer: 7.42 ng/mL

Question: And the concentration at 60 min [2]?
Answer: 6.04 ng/mL

Question: And the concentration at 90 min [2]?
Answer: 5.91 ng/mL

Question: And the concentration at 120 min [2]?
Answer: 5.85 ng/mL

Question: And the concentration at 150 min [2]?
Answer: 7.34 ng/mL

Question: And the concentration at 180 min [2]?
Answer: 7.07 ng/mL

Question: What about the concentration at 1 min [3] of the same compound?
Answer: 102 ng/mL

Question: And the concentration at 30 min [3]?
Answer: 18.4 ng/mL

Question: What about the concentration at 60 min [3] of the same compound?
Answer: 10.6 ng/mL

Question: And the concentration at 90 min [3]?
Answer: 6.85 ng/mL

Question: What about the concentration at 120 min [3] of the same compound?
Answer: 13.4 ng/mL

Question: What about the concentration at 150 min [3] of the same compound?
Answer: 15.2 ng/mL

Question: What about the concentration at 180 min [3] of the same compound?
Answer: 15.3 ng/mL

Question: What about the concentration at 1 min [4] of the same compound?
Answer: 119 ng/mL

Question: And the concentration at 30 min [4]?
Answer: 31 ng/mL

Question: And the concentration at 60 min [4]?
Answer: 26 ng/mL

Question: What about the concentration at 90 min [4] of the same compound?
Answer: 38.3 ng/mL

Question: What about the concentration at 120 min [4] of the same compound?
Answer: 41.1 ng/mL

Question: And the concentration at 150 min [4]?
Answer: 37.7 ng/mL

Question: And the concentration at 180 min [4]?
Answer: 35.2 ng/mL

Question: And the concentration at 1 min [5]?
Answer: 295 ng/mL

Question: And the concentration at 30 min [5]?
Answer: 45.1 ng/mL

Question: And the concentration at 60 min [5]?
Answer: 36.9 ng/mL

Question: What about the concentration at 90 min [5] of the same compound?
Answer: 35.3 ng/mL

Question: What about the concentration at 120 min [5] of the same compound?
Answer: 36.2 ng/mL

Question: And the concentration at 150 min [5]?
Answer: 38.4 ng/mL

Question: What about the concentration at 180 min [5] of the same compound?
Answer: 41.3 ng/mL

Question: And the concentration at 1 min [6]?
Answer: 186 ng/mL

Question: What about the concentration at 30 min [6] of the same compound?
Answer: 63 ng/mL

Question: And the concentration at 60 min [6]?
Answer: 65.2 ng/mL

Question: What about the concentration at 90 min [6] of the same compound?
Answer: 69.9 ng/mL

Question: What about the concentration at 120 min [6] of the same compound?
Answer: 75.1 ng/mL

Question: And the concentration at 150 min [6]?
Answer: 76 ng/mL

Question: What about the concentration at 180 min [6] of the same compound?
Answer: 86.5 ng/mL
